Measurements from PubChem BioAssay (NCI).
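Growth conditions: 96-well plates. Treatment: test compound, 48 hours, 5 concentrations. Analysis: linear interpolation between bracketing concentrations; unreached endpoints set to highest concentration. TGI marks complete inhibition of growth.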

Key:
Assay in all cases: growth of human tumour cells (NCI), 48 h
A549 NSCLC = tested on: A549 NSCLC
ACHN renal = tested on: ACHN renal
CCRF-CEM leukemia = tested on: CCRF-CEM leukemia
COLO 205 colon = tested on: COLO 205 colon
HCC-2998 colon = tested on: HCC-2998 colon
HL-60(TB) leukemia = tested on: HL-60(TB) leukemia
HOP-92 NSCLC = tested on: HOP-92 NSCLC
IGROV1 ovarian = tested on: IGROV1 ovarian
LOX IMVI melanoma = tested on: LOX IMVI melanoma
M14 melanoma = tested on: M14 melanoma
MALME-3M melanoma = tested on: MALME-3M melanoma
NCI/ADR-RES ovarian = tested on: NCI/ADR-RES ovarian
RPMI-8226 leukemia = tested on: RPMI-8226 leukemia
RXF 393 renal = tested on: RXF 393 renal
SF-295 CNS = tested on: SF-295 CNS
SNB-19 CNS = tested on: SNB-19 CNS
U251 CNS = tested on: U251 CNS
UACC-62 melanoma = tested on: UACC-62 melanoma
MDA-MB-231 breast = tested on: MDA-MB-231 breast
SR leukemia = tested on: SR leukemia

SMILES | TGI (A549 NSCLC) | TGI (ACHN renal) | TGI (CCRF-CEM leukemia) | TGI (COLO 205 colon) | TGI (HCC-2998 colon) | TGI (HL-60(TB) leukemia) | TGI (HOP-92 NSCLC) | TGI (IGROV1 ovarian) | TGI (LOX IMVI melanoma) | TGI (M14 melanoma) | TGI (MALME-3M melanoma) | TGI (NCI/ADR-RES ovarian) | TGI (RPMI-8226 leukemia) | TGI (RXF 393 renal) | TGI (SF-295 CNS) | TGI (SNB-19 CNS) | TGI (U251 CNS) | TGI (UACC-62 melanoma) | TGI (MDA-MB-231 breast) | TGI (SR leukemia)
Cc1c2ccccc2c(C2C3C(=O)N(c4ccc(Br)cc4)C(=O)C3ON2C(C(N)=O)c2ccccc2)c2ccccc12 (configuration not stated) | 14.1 µM | 17.3 µM | 22.4 µM | 3.33 µM | 26.6 µM | 14 µM | 39.4 µM | 18.2 µM | 18.6 µM | > 100 µM | 34.1 µM | 41.4 µM | 4.63 µM | 37.3 µM | 58.5 µM | 22.6 µM | 8.94 µM | 40.4 µM | – | –
COc1cc2c(c(OC)c1OC)-c1ccc(OC)c(=O)cc1C(NC(=O)COc1ccccc1)CC2 (configuration not stated) | > 100 µM | > 100 µM | > 63.4 µM | < 0.01 µM | 1.04 µM | – | 2.91 µM | > 92.3 µM | > 82.6 µM | > 21.5 µM | > 100 µM | 0.4 µM | 38.3 µM | > 71.5 µM | 0.0874 µM | > 100 µM | 13 µM | > 100 µM | 1.22 µM | 8.93 µM
CCOC(=O)c1cnc(N(C)C)nc1SC(=N)N | > 100 µM | > 100 µM | – | > 100 µM | – | – | > 100 µM | > 100 µM | > 100 µM | > 100 µM | > 100 µM | > 100 µM | > 100 µM | > 100 µM | > 100 µM | > 100 µM | > 100 µM | > 100 µM | > 100 µM | > 100 µM
CC(=O)Nc1ccc2c(c1)/C(=C\c1ccc([N+](C)(C)C)cc1)c1ccccc1-2 | > 100 µM | > 100 µM | 50.9 µM | 35.6 µM | > 100 µM | 59.5 µM | 79.9 µM | > 100 µM | > 100 µM | 33.8 µM | > 100 µM | > 100 µM | 91.3 µM | > 100 µM | > 100 µM | > 100 µM | > 100 µM | > 100 µM | > 100 µM | –
C[C@@H]1C[C@H]2[C@@H]3CCC4=CC(=O)C=C[C@]4(C)[C@@]3(F)[C@@H](O)C[C@]2(C)[C@@]1(O)C(=O)CO | > 100 µM | > 100 µM | > 100 µM | > 100 µM | – | > 100 µM | > 100 µM | > 100 µM | > 100 µM | > 100 µM | > 100 µM | – | – | – | – | – | – | > 100 µM | – | > 100 µM
CC(C)(C)[Si](OC1CCOC1=O)(c1ccccc1)c1ccccc1 (configuration not stated) | 62.7 µM | 99.6 µM | > 100 µM | > 10 µM | 47 µM | > 100 µM | > 10 µM | > 100 µM | 32.2 µM | 38.4 µM | 45.1 µM | – | > 100 µM | – | 60.2 µM | > 100 µM | 30.1 µM | 29.3 µM | – | > 10 µM
CCCCN1C(=O)C2Cc3c([nH]c4ccccc34)C(c3cccc(O)c3)N2C1=O (configuration not stated) | 35 µM | 34.1 µM | 36.2 µM | 39.5 µM | 34.2 µM | 46.2 µM | 33.8 µM | 31.3 µM | 32.2 µM | 34.4 µM | – | 36.2 µM | 51.2 µM | – | 31.9 µM | 34.6 µM | 33.5 µM | 32.3 µM | 31.2 µM | 45.6 µM
CNC(=O)OCc1nc(SC)n(C)c1CO | > 100 µM | – | > 100 µM | > 100 µM | > 100 µM | > 100 µM | > 100 µM | > 100 µM | > 100 µM | – | 3.42 µM | > 100 µM | > 100 µM | > 100 µM | > 100 µM | > 100 µM | > 100 µM | > 100 µM | – | –
C[n+]1cccc(NC(=O)c2ccc(NC(=O)C34CCC(C(=O)Nc5ccc(C(=O)Nc6ccc[n+](C)c6)cc5)(CC3)CC4)cc2)c1 | > 100 µM | > 100 µM | > 100 µM | – | – | 9.33 µM | > 100 µM | > 100 µM | > 100 µM | > 100 µM | – | – | > 100 µM | 61.5 µM | > 100 µM | > 100 µM | > 100 µM | > 100 µM | – | > 100 µM
CC(=O)Oc1ccccc1 | > 100 µM | > 100 µM | > 100 µM | – | – | > 100 µM | – | > 100 µM | > 100 µM | > 100 µM | > 100 µM | – | > 100 µM | > 100 µM | > 100 µM | > 100 µM | > 100 µM | > 100 µM | – | –
Cc1ccc2c(c1)SC1=Nc3sc4cc(C)ccc4[n+]3CN12 | 67.1 µM | > 100 µM | – | 13.1 µM | 6.62 µM | 9.77 µM | 68 µM | 34 µM | > 100 µM | 19.1 µM | 4.63 µM | > 100 µM | 6.17 µM | > 100 µM | – | 16.9 µM | 19 µM | 16.6 µM | 92.8 µM | –
